Data: PubChem BioAssay AID179 (DTP/NCI, 2004)
Activity calls are given as the source filed them.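 Rule for the calls: active = compounds giving half or more protection of infected cells from virus-caused growth loss, again on retest; inactive = the rest.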

System: CEM cells HIV-1 protection, formazan growth assay
Assay: NCI AIDS Antiviral Assay
Details: for IC50: measured here: growth of uninfected CEM cells
How it was run: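 Steps: treat uninfected and HIV-1-infected human CEM cells at five drug levels; quantify growth by soluble formazan; retest any compound reaching 50% protection; classify actives from the retest.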

Question: How did the EC50 turn out when `CCN(CC)CC(=N)N(CC)c1ccccc1` was run?
Answer: The EC50 was greater than 417 µM.

Question: What about the IC50 of the same compound?
Answer: The IC50 was 195 µM.

Question: For `O=C(Cc1ccccc1)NN1C(=O)C(Cl)C1c1cccc(O)c1` (centres undefined), which EC50 is on record?
Answer: Its EC50 is greater than 40.7 µM.

Question: What about the IC50 of the same compound?
Answer: Its IC50 is 15.5 µM.

Question: What does the source list for `Nc1c(Br)cc2c([nH]c(=O)c3cc(Br)ccc32)c1Br`?
Answer: EC50: > 200 µM; IC50: 38.9 µM

Question: How did the EC50 turn out when `COC(=O)C12C3C4C1C1C2C3C41C(=O)OC(C)(C)C` (centres undefined) was run?
Answer: Its EC50 is greater than 257 µM.

Question: What about the IC50 of the same compound?
Answer: The IC50 was greater than 257 µM.

Question: For `S=C(N1CCN(c2ccccc2)CC1)N1CCN(c2ccccc2)CC1`, which EC50 is on record?
Answer: Its EC50 is greater than 200 µM.

Question: And the IC50?
Answer: The IC50 was greater than 200 µM.

Question: With `CC(=O)OCC1CC(n2cc(C)c(=O)[nH]c2=O)=NO1` (centres undefined) as the compound, how does the EC50 read?
Answer: The EC50 was greater than 200 µM.

Question: What about the IC50 of the same compound?
Answer: Its IC50 is greater than 200 µM.

Question: Which EC50 does the source give for `COc1ccc(C[C@H](N)C(=O)N2C[C@@H](CO)C[C@@H](n3cnc4c(N(C)C)ncnc43)C2)cc1` here?
Answer: Its EC50 is greater than 275 µM.

Question: And the IC50?
Answer: The IC50 was greater than 275 µM.

Question: Which results are given for `O=C1N=C2SCCCN2C1(c1ccccc1)c1ccccc1`?
Answer: EC50: > 200 µM; IC50: > 200 µM

Question: With `CCSc1c(S)cnn(C)c1=O` as the compound, how does the EC50 read?
Answer: The EC50 was 23.4 µM.

Question: What about the IC50 of the same compound?
Answer: Its IC50 is 30.9 µM.

Question: For `CC1(C(=O)O)CCOc2ccccc21` (centres undefined), which outcome is on record?
Answer: The outcome was “inactive”.

Question: Which results are given for `Oc1cc2cc(-c3ccccc3)[nH]c2c2ccccc12`?
Answer: EC50: > 200 µM; IC50: 31.6 µM

Question: `O=C1C=CC(O)=CC1=P(c1ccccc1)(c1ccccc1)c1ccccc1` was tested. Which EC50 did it give?
Answer: The EC50 was greater than 200 µM.

Question: And the IC50?
Answer: Its IC50 is 32.4 µM.

Question: With `COC(=O)/C([Se]c1c(C)cc(C)cc1C)=C(\[Se]c1c(C)cc(C)cc1C)C(=O)OC` as the compound, how does the outcome read?
Answer: Its outcome is “inactive”.

Question: How did the EC50 turn out when `CC(=O)Nc1ccc(C(=O)NN2C(=O)CSC2c2ccccc2)cc1` (centres undefined) was run?
Answer: The EC50 was greater than 72.4 µM.

Question: And the IC50?
Answer: The IC50 was greater than 72.4 µM.

Question: Which outcome does the source give for `O=c1c2ccccc2nc(-c2ccccc2Cl)n1NC1OC(CO)C(O)C(O)C1O` (centres undefined) here?
Answer: Its outcome is “inactive”.

Question: `COc1cc(C(C[N+](=O)[O-])SC(C)=O)ccc1OCc1ccccc1` (centres undefined) was tested. Which EC50 did it give?
Answer: The EC50 was greater than 200 µM.

Question: And the IC50?
Answer: Its IC50 is 1.95 µM.

Question: `Cc1cn([C@@H]2C[C@H]2CO)c(=O)[nH]c1=O` was tested. Which outcome did it give?
Answer: Its outcome is “inactive”.

Question: Which EC50 does the source give for `N#CC12CCCC(=O)N1c1ccccc1S2` (centres undefined) here?
Answer: Its EC50 is greater than 195 µM.

Question: What about the IC50 of the same compound?
Answer: The IC50 was 105 µM.

Question: How did the EC50 turn out when `N/C(=N\N=C\c1ccc2c(c1)OCO2)NO` was run?
Answer: The EC50 was greater than 200 µM.

Question: And the IC50?
Answer: The IC50 was 105 µM.

Question: For `COc1cc2c(cc1OC)C(N(C)C)C(c1ccccc1)=C2Cl` (centres undefined), which EC50 is on record?
Answer: Its EC50 is greater than 55 µM.

Question: And the IC50?
Answer: Its IC50 is 33.1 µM.

Question: What does the source list for `N=C1N(c2ccccc2)C(N)(N)SSC(N)(N)N1c1ccccc1`?
Answer: EC50: > 141 µM; IC50: 17.4 µM

Question: `CCN(CC)CCC(=O)NC1c2ccccc2Oc2c(C)cccc21` (centres undefined) was tested. Which EC50 did it give?
Answer: Its EC50 is greater than 275 µM.

Question: What about the IC50 of the same compound?
Answer: The IC50 was 58.9 µM.

Question: What does the source list for `O=C(Nc1nnc(-c2ccccc2)s1)c1cc(=O)c2cc([N+](=O)[O-])ccc2o1`?
Answer: EC50: > 200 µM; IC50: > 200 µM

Question: For `Cc1ccc(-n2c3nc(=O)n(C)c(=O)c-3nc3ccccc32)c(C)c1`, which outcome is on record?
Answer: Its outcome is “inactive”.

Question: What does the source list for `Cc1ccccc1N(C)S(=O)(=O)c1ccccc1[N+](=O)[O-]`?
Answer: EC50: > 200 µM; IC50: 38.9 µM

Question: How did the EC50 turn out when `CC(=O)OC1CC2C(C)(C)C(=O)C=C[C@]2(C)C2CCC3(C)C(=CC(=O)C3c3ccoc3)[C@]12C` (some centres undefined) was run?
Answer: The EC50 was greater than 22.4 µM.

Question: What about the outcome of the same compound?
Answer: Its outcome is “inactive”.

Question: And the IC50?
Answer: Its IC50 is 14.1 µM.

Question: `CC(=O)NNc1nc(C)c(C(=O)NNC(=O)C(=O)Nc2c(Cl)cc([N+](=O)[O-])cc2Cl)s1` was tested. Which EC50 did it give?
Answer: The EC50 was greater than 74.1 µM.

Question: And the IC50?
Answer: The IC50 was greater than 74.1 µM.

Question: Which EC50 does the source give for `CN=C(c1ccc(NC(=O)c2ccc(C(=O)Nc3ccc(C(=NC)N4CCOCC4)cc3)c(Cl)c2)cc1)N1CCOCC1` here?
Answer: The EC50 was greater than 200 µM.

Question: And the IC50?
Answer: The IC50 was greater than 200 µM.

Question: Which outcome does the source give for `OC/C=C/c1ccc(Cl)cc1` here?
Answer: The outcome was “inactive”.

Question: For `CCC1(CC)C(=O)N(C(=O)c2ccccc2)N(C(=O)c2ccc(Cl)cc2)C1=O`, which EC50 is on record?
Answer: Its EC50 is greater than 200 µM.

Question: And the IC50?
Answer: Its IC50 is 50.1 µM.

Question: `CC(C)OP(=O)(OC(C)C)/C(C#N)=C/c1ccco1` was tested. Which EC50 did it give?
Answer: Its EC50 is greater than 200 µM.

Question: And the IC50?
Answer: The IC50 was greater than 200 µM.

Question: For `COc1cccc2c1C1=CC(=O)CCC1C(C)(C)O2` (centres undefined), which EC50 is on record?
Answer: The EC50 was greater than 195 µM.

Question: And the IC50?
Answer: The IC50 was 110 µM.

Question: How did the EC50 turn out when `Cc1cn(C2CC(O)C(CN=[N+]=[N-])O2)c(=O)[nH]c1=O` (centres undefined) was run?
Answer: The EC50 was greater than 933 µM.

Question: What about the IC50 of the same compound?
Answer: The IC50 was greater than 933 µM.

Question: How did the outcome turn out when `Cc1cc2c(=O)cc(-c3ccc(Cl)cc3Cl)oc2c(C(=O)O)c1C` was run?
Answer: The outcome was “inactive”.

Question: How did the EC50 turn out when `O=c1[nH]c(=O)n(C2OC(CO)C(O)C2O)cc1OCCc1ccccc1` (centres undefined) was run?
Answer: The EC50 was greater than 200 µM.

Question: And the IC50?
Answer: The IC50 was greater than 200 µM.

Question: `O=[P+](O)c1cc2ccccc2c2ccccc12` was tested. Which outcome did it give?
Answer: The outcome was “inactive”.

Question: `O=C(/C(=C/c1ccccc1)c1ccccc1)N1c2ccccc2CC1c1c[nH]c2ccccc12` (centres undefined) was tested. Which EC50 did it give?
Answer: The EC50 was 0.38 µM.

Question: And the IC50?
Answer: Its IC50 is 8.51 µM.

Question: For `CCCCCC=C(c1cc(Cl)c(OC)c(C(=O)NC)c1)c1cc(Cl)c(OC)c(C(=O)NC)c1`, which EC50 is on record?
Answer: The EC50 was greater than 38 µM.

Question: What about the IC50 of the same compound?
Answer: Its IC50 is 20.4 µM.

Question: How did the EC50 turn out when `Cn1c([C@H](C#N)C(=O)c2cc(O)ccc2[N+](=O)[O-])nc2ccccc21` was run?
Answer: The EC50 was greater than 200 µM.

Question: What about the IC50 of the same compound?
Answer: The IC50 was greater than 200 µM.

Question: Which EC50 does the source give for `c1ccc(C2=NCCN2)c(C2=NCCN2)c1` here?
Answer: The EC50 was greater than 200 µM.

Question: What about the IC50 of the same compound?
Answer: Its IC50 is greater than 200 µM.

Question: What does the source list for `CCCCCCCCCCCCCCCCCCOCC(O)COP(=O)(O)OCC1OC(n2cc(C)c(=O)[nH]c2=O)CC1N=[N+]=[N-]` (centres undefined)?
Answer: EC50: > 100 µM; IC50: 31.6 µM

Question: Which results are given for `N#Cc1c(N)c2c(c(-c3ccccc3)c1-c1ccccc1)C(=O)N(NC(=O)c1ccccc1)C2=O`?
Answer: EC50: 75.9 µM; IC50: 102 µM

Question: `CCCOCC(=O)OC` was tested. Which EC50 did it give?
Answer: The EC50 was greater than 1910 µM.

Question: And the IC50?
Answer: The IC50 was greater than 1910 µM.

Question: `O=C1CC2(CCNCC2)C(=O)N1N1CCCC1` was tested. Which EC50 did it give?
Answer: The EC50 was greater than 200 µM.

Question: And the IC50?
Answer: Its IC50 is greater than 200 µM.

Question: `OCCNCCNc1c2ccccc2nc2cc(Cl)ccc12` was tested. Which outcome did it give?
Answer: Its outcome is “inactive”.

Question: For `COc1ccc(C(=O)/C=C/c2ccc(OCC#N)cc2)cc1OC`, which EC50 is on record?
Answer: The EC50 was greater than 200 µM.

Question: And the IC50?
Answer: Its IC50 is 3.31 µM.
